From patent EP0428268A2, “Pharmaceutical phenylpyridone derivatives” (SMITH KLINE & FRENCH LABORATORIES LIMITED, priority 1989, dated 1991) come the findings set out here.

The subject of assay [1] is spontaneous colonic activity. Briefly: Inhibition of spontaneous colonic activity in vitro (isolated distal colon, organ bath). Further details: species or system guinea-pigs. As to conditions: concentration reducing spontaneous colonic activity by 50%, guinea-pig distal colon, Krebs solution at 37°C, read-out: IC₅₀. The source says: Male albino guinea-pigs (300 - 400g) were killed by a blow to the back of the head and exsanguinated. A 2cm long segment of the proximal part of the hypogastric loop of the distal colon was rapidly dissected out and placed in oxygenated (95% O₂, 5% CO₂) modified warm Krebs solution. The tissue was cleaned out with Krebs and the adjoining mesentery discarded. Cotton was then tied to each end and the colon was attached to a tissue holder in an organ bath containing modified oxygenated Krebs solution at 37°C. The other end of the tissue was tied to an isometric transducer and placed under 1g tension. Force developed by the muscle was detected by the transducer, and recorded on a multitrace pen recorder. Spontaneous colonic activity, as assessed by the contraction distance over a five minute period, was subjected to computer analysis.
The tissues were allowed to settle at a resting tension of 1g for 1 hour, during which time they were washed at 15 minute intervals. Three samples of pre-dose activity were taken and averaged. The tissues were then dosed and two samples of post-dose activity were taken. The lowest value was used to calculate the percentage relaxation, and log dose response curves were constructed. The tissues were washed 10 minutes after dosing and left for 15 minutes to settle prior to the next control period. […]

For another assay, the system named is ovalbumen. Briefly: Anti-allergic activity (ovalbumen challenge in sensitised animals, tracheal inflation pressure). To be noted: dose of 17 µmol/kg i.v.; ovalbumen challenge 30 minutes following drug administration. Format: in vivo, Duncan Hartley guinea-pigs. Here is the method: Male Duncan Hartley guinea-pigs (250-300 g) were sensitised to ovalbumen by i.p. injection of 2 ml of 50mg.ml⁻¹ i.p. and 0.2 ml s.c. Three weeks later they were anaesthetised with 60mg.kg⁻¹ sodium pentabarbitone. The trachea was cannulated and the animal respired at a rate of 40 breaths per minute and at an initial tracheal inflation pressure of 16 mmHg. Tracheal inflation pressure was measured by a transducer connected to a side arm of the respiration circuit. The carotid artery was cannulated for the measurement of blood pressure and the signal was used to trigger an instantaneous rate meter. A jugular vein was cannulated for the administration of drug and allergen. After surgery the animals were allowed to stabilise and the drug was administered i.v. as a bolus. Following this, ovalbumen 1mg.kg⁻¹ was injected i.v. as the antigen challenge either 2, 15 or 30 minutes following drug treatment and the peak bronchoconstrictor response recorded. For the control group ovalbumen only was given. One ovalbumen challenge per guinea-pig was used and n = 6 for each time point. The percentage increase in tracheal inflation pressure was calculated.

Where two headings read alike, the source gives them in different places.

Regarding `CCCOc1ccc(C(N)=O)cc1-c1ccc(C(N)=O)c(=O)[nH]1` [Example 13, 3-(3-Carboxamido-1,2-dihydro-2-oxo-6-pyidinyl)-4-propoxybenzamide], the IC50 in assay [1] was 1100 nM.
On to `CC(C)COc1ccc(F)cc1-c1ccc(C(N)=O)c(=O)[nH]1` [Example 25, 6-(5-Fluoro-2-(2-methylpropoxy)phenyl)-1,2-dihydro-2-oxo-pyridine-3-carboxamide], for which the “inhibition of the control bronchoconstrictor response” value with ovalbumen was found to be 40%.
In the case of `CCCOc1cc(OC)ccc1-c1ccc(C(N)=O)c(=O)[nH]1` [Example 9(b), 1,2-Dihydro-6-(4-methoxy-2-propoxyphenyl)-2-oxo-3-pyridine carboxamide], the IC50 in assay [1] (Cavia porcellus) is 3000 nM.
